The values below come from ChEMBL document CHEMBL1201862, “PubChem BioAssay data set” (2004).

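96-well plates; 48 h exposure; 5 concentrations. Endpoints by linear interpolation between flanking doses. Not reached: highest tested concentration assigned. Here, GI50 denotes the concentration required for 50% inhibition of growth.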 Activity calls are given as the source filed them. Rule as the data show it: active = GI50 up to about 1.1 µM and inactive = higher.

Assay in all cases: NCI-60 cell line screen, 48 h
Experiment [1] concerns HT-29.
In experiment [2] the test system is U-251.
The test system of experiment [3] is PC-3.
Experiment [4] deals with NCI/ADR-RES.
The subject of experiment [5] is EKVX.
Experiment [6] has as its system 786-0.
In experiment [7] the test system is CCRF-CEM.
Experiment [8] concerns M14.
Experiment [9] deals with OVCAR-8.
Experiment [10] concerns UACC-62.
The subject of experiment [11] is ACHN.
In experiment [12] the test system is UO-31.
Experiment [13] has as its system SR.
The subject of experiment [14] is KM-20L2.
The subject of experiment [15] is HL-60.
Experiment [16] deals with SF-268.
Experiment [17] relates to COLO 205.
Experiment [18] relates to OVCAR-4.
The test system of experiment [19] is K562.
For experiment [20], the system named is SK-OV-3.

With `OCc1ccc(-c2ccc(-c3ccc(CO)s3)o2)s1`, the GI50 in experiment [1] was 0.432 µM (active); in [2] it was 0.0646 µM (active); in experiment [3], 44.5 µM (inactive); in experiment [4], 13.2 µM (inactive); in experiment [5], 26.3 µM (inactive); in [6], 4.6 µM (inactive). For the same molecule, the GI50 in experiment [7] was 2.59 µM (inactive); in [8] it was 30 µM (inactive); in [9], 12.1 µM (inactive); in experiment [10], 0.0142 µM (active); in experiment [11], 11.3 µM (inactive); in experiment [12], 35.5 µM (inactive). Further, the GI50 is 3.6 µM (inactive) in [13]; 0.0405 µM (active) in experiment [14]; 3.56 µM (inactive) in experiment [15]; 49 µM (inactive) in [16]; 0.335 µM (active) in [17]; 0.212 µM (active) in experiment [18]. Moreover, the GI50 was 0.596 µM (active) in experiment [19] and 7.06 µM (inactive) in [20].

As for `Cc1c(N)nc([C@H](CC(N)=O)NC[C@H](N)C(N)=O)nc1C(=O)N[C@H](C(=O)N[C@H](C)[C@@H](O)[C@H](C)C(=O)N[C@H](C(=O)NCCc1nc(-c2nc(C(=O)NCCC[S+](C)C)cs2)cs1)[C@@H](C)O)C(OC1OC(CO)C(O)C(O)C1OC1OC(CO)C(O)C(OC(N)=O)C1O)c1c[nH]cn1` (stereo not given in full), the GI50 is 14.1 µM (inactive) in [1]; 0.834 µM (active) in experiment [2]; 7.73 µM (inactive) in experiment [3]; 0.904 µM (active) in experiment [4]; 17.8 µM (inactive) in [5]; 1.05 µM (active) in experiment [6]. Further, the GI50 in experiment [7] is 6.75 µM (inactive); in experiment [8], 1.56 µM (inactive); in experiment [9], 3.26 µM (inactive); in experiment [10], 0.451 µM (active); in [11], 0.00802 µM (active); in experiment [12], 0.478 µM (active). Further, the GI50 is 0.109 µM (active) in experiment [13]; 19.9 µM (inactive) in experiment [14]; 5.73 µM (inactive) in [15]; 1.15 µM (inactive) in experiment [16]; 6.05 µM (inactive) in [17]; 4.92 µM (inactive) in experiment [18]. Moreover, the GI50 in experiment [19] is 8.45 µM (inactive); in experiment [20], 6.46 µM (inactive).

As to `Cc1c(N)nc(C(CC(N)=O)NCC(N)C(N)=O)nc1C(=O)NC(C(=O)NC(C)C(O)C(C)C(=O)NC(C(=O)NCCc1nc(-c2nc(C(=O)NCCCNC(C)c3ccccc3)cs2)cs1)C(C)O)C(OC1OC(CO)C(O)C(O)C1OC1OC(CO)C(O)C(OC(N)=O)C1O)c1c[nH]cn1` (stereo not given), the GI50 in [1] is 21.1 µM (inactive); in experiment [2], 1.26 µM (inactive); in [3], > 50 µM (inactive); in experiment [4] it was 1.57 µM (inactive); in [5], 47.1 µM (inactive); in experiment [6], 0.419 µM (active). Also, the GI50 was 4.33 µM (inactive) in [7]; 3.27 µM (inactive) in [8]; 5.11 µM (inactive) in experiment [9]; 0.706 µM (active) in [10]; 0.0208 µM (active) in experiment [11]; 0.283 µM (active) in experiment [12]. For the same molecule, the GI50 is 2.3 µM (inactive) in experiment [13]; 40.4 µM (inactive) in experiment [14]; 7.59 µM (inactive) in [15]; 2.9 µM (inactive) in experiment [16]; 11.3 µM (inactive) in [17]; 7.4 µM (inactive) in experiment [18]. Moreover, the GI50 in experiment [19] was 10.1 µM (inactive); in experiment [20], 10.2 µM (inactive).

For `COc1cc2c[n+](C)c3c4cc5c(cc4ccc3c2cc1OC)OCO5` [NITIDINE CHLORIDE], the GI50 in [1] is 1.56 µM (inactive); in experiment [2], 0.371 µM (active); in [3], 2.33 µM (inactive); in experiment [4] it was 27 µM (inactive); in [5] it was 1.7 µM (inactive); in experiment [6], 2.49 µM (inactive). Moreover, the GI50 in experiment [7] was 0.752 µM (active); in experiment [8], 17.1 µM (inactive); in experiment [9] it was 1.81 µM (inactive); in experiment [10], 1.25 µM (inactive); in experiment [11], 71.9 µM (inactive); in experiment [12] it was > 61.4 µM (inactive). In addition, the GI50 is 0.839 µM (active) in experiment [13]; 0.608 µM (active) in [14]; 4.25 µM (inactive) in experiment [15]; 0.126 µM (active) in experiment [16]; 1.66 µM (inactive) in experiment [17]; 3.45 µM (inactive) in experiment [18]. In addition, the GI50 in experiment [19] was 4.51 µM (inactive); in experiment [20] it was 0.877 µM (active).
